Results from patent US20170298051A1, “ACTIVATOR OF ADIPONECTIN RECEPTOR” (THE UNIVERSITY OF TOKYO, priority 2013, published 2017).

T1: AdipoR1 (Mus musculus, UniProt Q91VH1)
T1 construct: C2C12 cells (ATCC; CRL-1772, medium; host or cells: differentiated C2C12
T1 sequence (Q91VH1 1-375): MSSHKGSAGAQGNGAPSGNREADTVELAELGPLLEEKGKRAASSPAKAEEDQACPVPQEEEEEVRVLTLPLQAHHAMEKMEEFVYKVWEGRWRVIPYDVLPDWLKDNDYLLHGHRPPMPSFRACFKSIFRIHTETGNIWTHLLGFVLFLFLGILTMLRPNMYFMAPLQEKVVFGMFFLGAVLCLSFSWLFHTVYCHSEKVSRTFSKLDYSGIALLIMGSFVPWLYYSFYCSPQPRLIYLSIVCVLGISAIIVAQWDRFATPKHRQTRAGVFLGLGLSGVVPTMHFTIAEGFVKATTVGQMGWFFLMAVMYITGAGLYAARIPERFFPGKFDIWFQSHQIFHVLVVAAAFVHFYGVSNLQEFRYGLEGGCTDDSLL


Key:
[1] = test system: HF diet-induced obese mice; test: Oral glucose tolerance test and insulin tolerance in HF diet-induced obese mice; format: in vivo; conditions: mice, FIG. 7
Procedure: The original Adipor1^+/−/Adipor2^+/− mice (C57BL/6 and 129/Sv mixed background)^a were backcrossed with C57B1/6 mice more than seven times. All experiments in this study were conducted on male littermates.
(§1) Mice were 6-10 week of age at the time of the experiment. They were housed in cages and maintained on a 12 hr light-dark cycle.
(§2) Plasma glucose levels were determined by using a glucose B-test (Wako Pure Chemical Industries). Plasma insulin was measured with an insulin immunoassay (Shibayagi). Plasma NEFAs (Wako Pure Chemical Industries) were assayed by enzymatic methods.
(§3) The oral glucose tolerance test (OGTT) and insulin tolerance test (ITT) were conducted as previously described^a,b with slight modifications. The areas of the glucose and insulin curves were calculated by multiplying the cumulative mean height of the glucose values (1 mg/ml=1 cm) and insulin values (1 ng/ml=1 cm), respectively, by time (60 min=1 cm)^c,a. The insulin resistance index was calculated from the product of the areas of glucose and insulin×10^−2 in the glucose tolerance test. The results are expressed as the percentage of the value respect to control littermates.

AdipoR1 [2] = test: Measurement of AMPK phosphorylation ability (Assay 2), C2C12 cells with unrelated or AdipoR1 siRNA; format: cell-based, Mouse
Procedure: C2C12 cells (ATCC; CRL-1772, medium; DMEM, 10% Fetal Bovine Serum (FBS)) were cultured in a 12- or 24-well plate until they reached 100% confluency (37° C., 5% CO2). The medium was changed to DMEM, 2.5% Horse Serum (HS) and differentiation was started. The medium (DMEM, 2.5% HS) was replaced two days after the start of differentiation. The medium (DMEM, 2.5% HS) was further replaced two days after that.
On the next day following the replacement of the medium, first, 1 μL of Lipofectamine RNAiMAX and 50 μL of OPTI-MEM were mixed, and then 5 μM siRNA (sense siRNA sequence: […]tt (SEQ ID NO: 1)) and 50 μL of OPTI-MEM were mixed and the resultants were left to stand at room temperature for 5 minutes. And then, the 1 μL Lipofectamine RNAiMAX/50 μL OPTI-MEM and the 5 μM siRNA/50 μL OPTI-MEM were mixed, and the resultant was left to stand at room temperature for 10 minutes, which was added to the cells.
After 5 minutes, the medium (DMEM, 2.5 HS) was replaced, and after starvation on the next day, a test compound listed in Table 12 was added thereto. After 10 minutes, the medium was discarded and the plate was frozen with liquid nitrogen.
The respective amounts of pAMPK and AMPK were determined in the same way as in the above Assay 1.

AdipoR1 [3] = target: T1, AdipoR1; test: Measurement of AMPK phosphorylation ability (Assay 1), differentiated C2C12 cells, Western blotting; format: cell-based; conditions: 10 μM, 10 minutes
Procedure: The AMPK phosphorylation ability of the respective compounds according to the present invention was measured by using differentiated C2C12 cells or HEK 293T cells.
C2C12 cells (ATCC; CRL-1772, medium; DMEM, 10% FBS) were cultured in a 12- or 24-well plate until they reached 100% confluency (37° C., 5% CO2).
The medium was changed to 2.5% Horse Serum (HS) and differentiation was started. The medium (DMEM, 2.5% HS) was replaced every three days.
After starvation, a test compound listed in Table 12 (concentration: 10 μM) was added thereto, and after 10 minutes, the medium was discarded and the plate was frozen with liquid nitrogen.
To the 12- or 24-well cell plate which had been frozen was added 100 or 150 μL of Cell lysis buffer pH 7.4 (50 mM HEPES (pH 7.4), 2 mM sodium orthovanadate, 10 mM sodium pyrophosphate, 10 mM NaF, 2 mM EDTA, 2 mM EGTA, 0.1% (v/v) NP-40, 0.2 mM PMSF), and the cells were scraped off with a cell scraper, suspended and transferred into a micro centrifugal tube. And then, the cells were ultrasonically crushed (1 second×3 times) with a sonicator. Centrifugation was performed at 4° C. at 15,000 rpm for 15 minutes, and the supernatant was recovered into a new tube.
To 100 μL of the supernatant was added 25 μL of 5× sample buffer (280 mM Tris-HCl (pH 6.9), 40% glycerol, 10% (3-mercaptoethanol, 13% SDS, a small amount of bromophenol blue) and mixed together. The rest of the supernatant was used for protein quantification, and the protein concentrations were uniformed by adding 1× sample buffer depending on the concentration of each sample.
An electrophoresis chamber was filled with 1× SDS buffer (25 mM Tris-HCl, 250 mM glycine, 0.1% SDS), and the sample was applied to a well of polyacrylamide gel. Electrophoresis was performed until the bromophenol blue in the sample reached to the bottom of the gel.
A filter paper was soaked in 1× Transfer buffer sufficiently, above which the PVDF membrane and the gel after electrophoresis were stacked in this order, and thereabove a filter paper which had been soaked in 1× Transfer buffer sufficiently was further stacked, from which an air was removed and the resultant was set in semi-dry type transfer apparatus and transferred (7V, 35 minutes).
An unnecessary portion of the blotted membrane was cutoff, and the rest was immediately soaked in blocking buffer (5% skimmed milk in Rinse buffer), and shaken at room temperature at 40 rpm for 3 hours.
After blocking, the membrane was transferred into Rinse buffer, and washed at room temperature for 10 minutes while shaking. The membrane was soaked in a primary antibody solution (AMPK alpha Antibody (Cell signaling; #2532) 1/1,000 in Rinse buffer, Phospho-AMPK alpha (Thr172) (40H9) antibody (Cell signaling; #2535) 1/1,000 in Rinse buffer), and shaken at 4° C. at 40 rpm overnight.
The membrane was soaked in a secondary antibody solution (goat anti-rabbit IgG-HRP Antibody (Santa Cruz; sc-2030) 1/2,000 in Rinse buffer), and shaken at room temperature at 40 rpm for 1 hour.
After the membrane was washed for 45 minutes in the same way as after the primary antibody reaction, the membrane was soaked in a chemiluminescent reaction solution (ECL Western Blotting Detection Reagents, GE Healthcare) for about 1 minute. An excess of the reaction solution was removed, and then the membranes were arranged on a transparent film and sandwiched with it, with which an X-ray film was exposed in a darkroom (for about several seconds to 60 seconds) to develop the film.
The X-ray film was scanned to take the image, for which the band was measured by using the image analysis software “Image J” to determine the respective amounts of pAMPK and AMPK.

Lepr−/− (db/db) mice = test: Anti-diabetic effects in db/db mice; format: in vivo; conditions: intraperitoneal (IP) injection
Procedure: as §1
Male Lepr^−/− (aged 6-10 week) were purchased from Jackson Laboratory. When the mice in the same genotype received different treatments, they were randomly assigned to treatment groups.
as §2, §3

Molecule | glucose intolerance and insulin resistance [1] | pAMPK/AMPK (ratio) siRNA, AdipoR1 siRNA (AdipoR1 [2]; AdipoR1 siRNA) [ratio] | pAMPK/AMPK (ratio) siRNA, unrelated siRNA (AdipoR1 [2]; unrelated siRNA) [ratio] | pAMPK/AMPK (%) (AdipoR1 [3]) | plasma glucose level (Lepr−/− (db/db) mice)
COc1ccc(CN2CCN(C(=O)CCNC(=O)c3ccc(C(C)(C)C)cc3)CC2)cc1 [Compound 74, 4-tert-butyl-N-(3-{4-[(4-methoxyphenyl)methyl]piperazin-1-yl}-3-oxopropyl) benzamide] | could improve glucose intolerance as well as insulin resistance | 2.07 | 3.70 | 86.43 | 
adiponectin: antidiabetic and antiatherogenic adipokine; mouse full-length adiponectin was generated as previously described (protein, UniProt Q60994 1-247, looked up, full-length, antidiabetic and antiatherogenic adipokine; mouse full-length adiponectin was generated as previously described) MLLLQALLFLLILPSHAEDDVTTTEELAPALVPPPKGTCAGWMAGIPGHPGHNGTPGRDGRDGTPGEKGEKGDAGLLGPKGETGDVGMTGAEGPRGFPGTPGRKGEPGEAAYVYRSAFSVGLETRVTVPNVPIRFTKIFYNQQNHYDGSTGKFYCNIPGLYYFSYHITVYMKDVKVSLFKKDKAVLFTYDQYQEKNVDQASGSVLLHLEVGDQVWLQVYGDGDHNGLYADNVNDSTFTGFLLYHDTN |  |  |  |  | decreased plasma glucose level
